{"source": "patent US8273543B2", "about": "“Regulation of BACE degradation” (The General Hospital Corporation, priority 2006, dated 2012)", "key": {"BACE [1]": {"test_system": "BACE", "details": "variety of cell types, including primary neurons; cited from earlier work"}, "BACE [2]": {"test_system": "BACE", "test": "Induction of apoptosis, Western blot of BACE protein levels", "format": "cell-based, human", "details": "H4-APP751 cells", "protocol": "(§1) H4 human neuroglioma cells expressing APP751 (H4-APP751) and APP-SWE (H4-APPSWE) were grown in DMEM containing 10% FBS, 200 μg/mL G418, 250 μg/mL zeocin, 2 mM L-glutamine, 100 U/ml penicillin, 100 μg/mL streptomycin. For the induction of apoptosis, we used staurosporine or etoposide (Calbiochem). For time-course experiments, cells were seeded at a density of 2×10^6 cells per 100 mm dish and treated with STS (1 μM) or etoposide (100 μg/mL). In order to inhibit caspase activation a sister plate of cells was pretreated with zVAD (100 μM, Calbiochem) for 1 hr before STS treatment. At different time points (0, 3, 6, 9, 12, and 24 hr), the cells were scraped, centrifuged, and then lysed in buffer containing 1% NP40. Western blot analysis was performed as previously described (Tesco et al., 2003). Densitometry analysis was performed on a Macintosh computer using the public domain NIH Image program (developed at the U.S. National Institutes of Health and available on the Internet at rsb.info.nih.gov/nih-image/) or using a Versadoc Imager and QuantityOne software (BioRad)."}, "GGA3 [3]": {"test_system": "GGA3", "test": "GGA3 cleavage during apoptosis in H4 cells, Western blot with anti-GGA3 antibody", "format": "cell-based, human", "details": "for cleavage of full length GGA3: H4 cells, STS time course", "protocol": "H4 cells were treated with staurosporine (STS) during time course experiments.\nas §1"}, "GGA3 [4]": {"test_system": "GGA3", "test": "Full length GGA3 in primary cortical neurons treated with STS, Western blot", "format": "cell-based", "details": "primary cortical neurons (PCN), STS for 12 hr", "protocol": "FIG. 5b: rat brain samples from the experiment described in FIG. 7. […] FIG. 5c: H4 and primary cortical neurons (PCN) were treated with STS for 12 hr."}, "APP-C99": {"test_system": "APP-C99", "test": "APP-C99 levels during apoptosis, Western blot with WO2 antibody", "format": "cell-based, human", "details": "H4-APP751 cells, apoptosis induced by STS", "description": "(§2) Gervais and colleagues (Gervais et al., 1999) proposed that caspase-mediated cleavage of APP at APPD720 was responsible for increased Aβ generation associated with apoptosis. […] The Aβ ELISA measured Aβ1-total using biotinylated 3D6, which specifically recognizes the aspartate in position 1 of Aβ, as a reporter antibody. […] Here, we investigated whether apoptosis-mediated increases in Aβ levels may be due to enhanced cleavage of APP by BACE, the protease responsible for β-secretase cleavage of APP (Vassar et al., 1999). For this purpose, we tested whether apoptosis/caspase activation leads to increased levels of APP-C99, the C-terminal fragment generated by β-secretase cleavage of APP. […]\n(§3) H4 human neuroglioma cells expressing APP751 (H4-APP751) and APP-SWE (H4-APPSWE) were grown in DMEM containing 10% FBS, 200 μg/mL G418, 250 μg/mL zeocin, 2 mM L-glutamine, 100 U/ml penicillin, 100 μg/mL streptomycin. […] Densitometry analysis was performed on a Macintosh computer using the public domain NIH Image program (developed at the U.S. National Institutes of Health and available on the Internet at rsb.info.nih.gov/nih-image/) or using a Versadoc Imager and QuantityOne software (BioRad)."}, "caspase 3": {"test_system": "caspase 3", "test": "Caspase 3 activation, Western blot with anti-caspase 3 active fragment antibody", "format": "cell-based, human", "details": "H4-APP751 cells, STS treatment", "description": "as §2, §3"}, "BACE mRNA": {"test_system": "BACE mRNA", "test": "Northern blot analysis of BACE mRNA", "format": "cell-based, human", "details": "H4-APP751 cells, 6 hr of STS treatment", "protocol": "Total RNA was extracted using TRIZOL (Invitrogen). Northern blot analysis was performed as previously described (Koh et al., 2001). Human cDNA of BACE was labeled with […] (PerkinElmer, Norwalk Conn.) using random hexanucleotide primers (Prime-a-gene labeling system; Promega Madison Wis.)."}, "BACE [5]": {"test_system": "BACE", "test": "Cycloheximide degradation time-course, BACE", "format": "cell-based, human", "details": "H4-APP751 cells, STS+CHX vs CHX (40 μg/ml) only", "protocol": "(§4) H4-APP751 cells were treated with CHX (40 μg/ml) only or STS (1 μM)+CHX during a 30 hr time-course. Lysates from each time point were immunoblotted with the specific antibodies, anti-BACE, anti-TACE, and the anti-APP antibody […]."}, "TACE and APP": {"test_system": "TACE and APP", "test": "Cycloheximide degradation time-course, TACE and APP", "format": "cell-based, human", "details": "H4-APP751 cells, STS+CHX vs CHX (40 μg/ml) only", "protocol": "as §4"}, "Aβ1-total": {"test_system": "Aβ1-total", "details": "CHO cells, 6 hr treatment; cited from earlier work"}, "[6]": {"test_system": "ischemic and excitotoxic neuronal damage", "details": "intracerebroventricular injection before ischemia and immediately after reperfusion; cited from earlier work"}, "BACE [7]": {"test_system": "BACE", "details": "caspase inhibition; cited from earlier work"}, "GGA3 [8]": {"test_system": "GGA3", "test": "In vitro translation and recombinant caspase 3 cleavage assay", "format": "biochemical, human", "details": "recombinant caspase 3", "protocol": "The HA-GGA3 pcDNA4 plasmid was a generous gift from Dr. Waguri. GGA3 was in vitro translated (IVT) in the presence of [^35S]-labeled methionine using TNT Quick Coupled Transcription/Translation Systems as indicated by the manufacturer (Promega, Madison Wis.). 5 μL of IVT reaction were incubated with or without 200 ng of recombinant caspase 3 (Pharmingen, San Diego, Calif.) in caspase reaction buffer (sucrose 20%, NaCl 100 mM, HEPES (pH 7.4) 20 mM, CHAPS 0.1%, DTT 10 mM, EDTA 1 mM) at 37° for 2 hr. The reactions were separated by SDS-page (4-12% Bis-tricine gel with MES running buffer, Invitrogen Carlsbad, Calif.). The gel was fixed, dried and exposed to a phosphorimager screen. The images were acquired with a FX phosphorimager (Bio-Rad, Hercules Calif.). GGA3 in vitro translation was also performed in the presence of cold methionine. Then, 5 μL of IVT reaction were incubated with or without 200 ng of recombinant caspase 3 overnight at 37°. The reactions were separated by SDS-page. In order to better separate the bands generated by caspase 3 cleavage we used 12% Bis-tricine gel and MOPS running buffer (Invitrogen). Then, the proteins were transferred to PVDF membrane and WB analysis with anti-GGA3 antibody was performed."}, "Aβ40": {"test_system": "Aβ40", "test": "Secreted Aβ40 in conditioned media, sandwich ELISA", "format": "cell-based, human", "details": "H4-APP751 cells expressing GGA3DN", "protocol": "Secreted Aβ40 was measured in the conditioned media using an Aβ40-specific sandwich ELISA (BioSource International, Camarillo, Calif.). Aβ concentration was normalized against the concentration of protein in the cell lysates.\nH4 cells stably expressing wild-type APP-751 or APP containing the Swedish FAD mutation (APPSwe) were transfected with 200 nM siGGA3 (ID #36847, Ambion, Austin Tex.) or a 19 bp scrambled sequence was used as negative control for siRNA (Silencer Negative control #1 siRNA, Ambion) using oligofectamine following manufacturer's instructions (Invitrogen). 72 hr later, GGA3 levels were determined by WB analysis with anti-GGA3 antibody (Transduction Laboratories). At the same time point, a sister plate of the same cells was co-transfected with myc-tagged BACE plasmid and siGGA3 or siNeg. After 48 hr the media was replaced. Cells and media were collected after 72 hr following the co-transfection."}, "BACE [9]": {"test_system": "BACE", "test": "Co-transfection of GGA3DN with myc-tagged BACE in H4-APP751 cells, BACE levels", "format": "cell-based, human", "description": "To address this possibility we engineered a HA-tagged GGA3 N-terminal fragment 1-313 mimicking the N-terminal caspase-derived fragment generated by cleavage at D313 (GGA3DN). […] During apoptosis, however, caspase-mediated cleavage of GGA3 results not only in the production of GGA3DN but also the degradation of GGA3."}}, "note": "“Also recorded” adds a separate entry of the source. Peptide text beside a SMILES is read from it. * marks the point of attachment. Cbz = O=C(OCc1ccccc1)*; CH2F = FC*", "data": [{"molecule": "Cl.N", "note": "[NH4Cl]", "values": [{"measurement": "accumulation of endogenous and ectopically expressed BACE", "setting": "BACE [1]", "value": "lead to accumulation"}]}, {"molecule": "CN[C@@H]1C[C@H]2O[C@@](C)([C@@H]1OC)n1c3ccccc3c3c4c(c5c6ccccc6n2c5c31)C(=O)NC4", "note": "[STS, staurosporine]", "values": [{"measurement": "increase in BACE protein levels", "setting": "BACE [2]; 12 hr of STS treatment", "value": "~6", "unit": "fold"}, {"measurement": "increase in BACE protein levels", "setting": "BACE [2]; 24 hr of STS treatment", "value": "~9", "unit": "fold"}, {"measurement": "cleavage of full length GGA3", "setting": "GGA3 [3]", "value": "cleaved into two major fragments"}, {"measurement": "cleavage of full length GGA3", "setting": "GGA3 [3]; listed as staurosporine", "value": "cleaved in two major fragments"}, {"measurement": "full length GGA3", "setting": "GGA3 [4]", "value": "decrease in full length GGA3"}, {"measurement": "levels of APP-C99", "setting": "APP-C99", "value": "increased levels of C99"}, {"measurement": "earliest time of caspase 3 activation", "setting": "caspase 3", "value": 6, "unit": "h"}, {"measurement": "BACE mRNA levels", "setting": "BACE mRNA", "value": "virtually undetectable"}, {"measurement": "degradation of BACE", "setting": "BACE [5]", "value": "degradation of BACE was decreased"}, {"measurement": "degradation of TACE and APP", "setting": "TACE and APP", "value": "unchanged"}, {"measurement": "Aβ1-total production compared to untreated cells", "setting": "Aβ1-total", "value": "significantly increased"}]}, {"molecule": "CCN(CC)CCCC(C)Nc1ccnc2cc(Cl)ccc12", "note": "(centres unmarked) [chloroquine]", "values": [{"measurement": "accumulation of endogenous and ectopically expressed BACE", "setting": "BACE [1]", "value": "lead to accumulation"}]}, {"molecule": "COc1cc([C@@H]2c3cc4c(cc3[C@@H](O[C@@H]3O[C@@H]5CO[C@@H](C)O[C@H]5[C@H](O)[C@H]3O)[C@H]3COC(=O)[C@H]23)OCO4)cc(OC)c1O", "note": "[etoposide]", "values": [{"measurement": "BACE protein levels", "setting": "BACE [2]; apoptosis induced by etoposide", "value": "increased BACE protein levels"}]}, {"molecule": "COC(=O)C[C@H](NC(=O)[C@H](C)NC(=O)[C@@H](NC(=O)OCc1ccccc1)C(C)C)C(=O)CF", "note": "[z-VAD.FMK] (Cbz-Val-Ala-Asp(OMe)-CH2F)", "values": [{"measurement": "ischemic and excitotoxic neuronal damage", "setting": "[6]", "value": "significantly reduces"}]}, {"molecule": "COC(=O)CC[C@H](NC(=O)[C@H](CC(=O)OC)NC(=O)OCc1ccccc1)C(=O)N[C@H](C(=O)N[C@@H](CC(=O)OC)C(=O)CF)C(C)C", "note": "[zDEVD.FMK]", "values": [{"measurement": "ischemic and excitotoxic neuronal damage", "setting": "[6]", "value": "significantly reduces"}]}, {"molecule": "CC(NC(=O)C(NC(=O)OCc1ccccc1)C(C)C)C(=O)NC(CC(=O)O)C(=O)CF", "note": "(stereo not drawn) [zVAD] (Cbz-Val-Ala-Asp-CH2F; configuration not given here)", "values": [{"measurement": "BACE accumulation during STS or etoposide treatment", "setting": "BACE [2]; caspase inhibition", "value": "prevented BACE accumulation"}, {"measurement": "cleavage of GGA3 during apoptosis", "setting": "GGA3 [3]; apoptotic H4 cells, caspase inhibition", "value": "inhibited; also recorded: prevented"}, {"measurement": "increase in Aβ production during apoptosis", "setting": "BACE [7]", "value": "prevent"}, {"measurement": "stabilization of BACE during apoptosis", "setting": "BACE [7]", "value": "prevent the stabilization of BACE"}]}, {"molecule": "recombinant caspase 3: Recombinant caspase 3 purchased from Pharmingen (protein) SGISLDNSYKMDYPEMGLCIIINNKNFHKSTGMTSRSGTDVDAANLRETFRNLKYEVRNKNDLTREEIVELMRDVSKEDHSKRSSFVCVLLSHGEEGIIFGTNGPVDLKKITNFFRGDRCRSLTGKPKLFIIQACRGTELDCGIETDSGVDDDMACHKIPVEADFLYAYSTAPGYYSWRNSKDGSWFIQSLCAMLKQYADKLEFMHILTRVNRKVATEFESFSFDATFHAKKQIPCIVSMLTKELYFYH", "values": [{"measurement": "cleavage of in vitro translated GGA3 (cold methionine), Western blot", "setting": "GGA3 [8]", "value": "three major fragments"}]}, {"molecule": "GGA3DN: HA-tagged GGA3 N-terminal fragment 1-313 mimicking the N-terminal caspase-derived fragment generated by cleavage at D313 (protein, UniProt Q9NZ52 1-313, looked up, fragment, HA tag, HA-tagged GGA3 N-terminal fragment 1-313 mimicking the N-terminal caspase-derived fragment generated by cleavage at D313) MAEAEGESLESWLNKATNPSNRQEDWEYIIGFCDQINKELEGPQIAVRLLAHKIQSPQEWEALQALTVLEACMKNCGRRFHNEVGKFRFLNELIKVVSPKYLGDRVSEKVKTKVIELLYSWTMALPEEAKIKDAYHMLKRQGIVQSDPPIPVDRTLIPSPPPRPKNPVFDDEEKSKLLAKLLKSKNPDDLQEANKLIKSMVKEDEARIQKVTKRLHTLEEVNNNVRLLSEMLLHYSQEDSSDGDRELMKELFDQCENKRRTLFKLASETEDNDNSLGDILQASDNLSRVINSYKTIIEGQVINGEVATLTLPD", "values": [{"measurement": "levels of secreted Aβ40", "setting": "Aβ40", "value": "the increase was not statistically significant"}, {"measurement": "BACE levels compared to vector alone or GGA3", "setting": "BACE [9]", "value": "BACE levels were increased"}]}]}
